# Reference: patent US20260109721A1, “IONIZABLE CATIONIC LIPIDS INCORPORATING SILICON: SYNTHESIS AND LNP FORMULATION” (priority 2023, published 2026)
# What was measured:
# HeLa cells = assay: Transfection efficiency with GFP mRNA (Method B); assay type: cell-based; conditions: 24 h, GFP fluorescence
# Protocol: The synthesized lipids were tested in term of in vitro transfection efficacy and toxicity on HeLa cells. In order to perform the mentioned biological tests, appropriate LNPs had to be formulated from the synthesized lipids. The formulation technique was different in Method A and B. The particle size, polydispersity index (PDI) and zeta potential of resulting LNPs were determined by means of Dynamic Light Scattering technique (DLS). Prior to biological testing the encapsulation efficiency (EE) of the loaded LNPs was determined by using RiboGreen RNA assay. In case of Method A Luc mRNA while in case of Method B GFP mRNA was transfected into the cells. In parallel with the transfection experiments, toxicity of the investigated LNPs was determined, in case of Method A resazurin assay while in case of Method B MTT assay was used. Additionally, the toxicity of the lipids was investigated on HepG2 cells and IC50 values were determined.
# (§1) In 1.5 mL eppendorf: • a) Place 2.9 uL of 0.33 ug/uL mRNA solution into Eppendorf tube • b) Add 1.94 μL of supplied ethanolic solution of tested lipid and immediately mix by working pipette up-and-down several times (work the solution up and down several times before transferring to saturate pipette tip with ethanol vapors) • c) Incubate for 15 minutes. • d) Add 536 μL of MEM. Mix the solution by vortexing. • e) Incubate for 30 minutes.
# • MEM (Sigma, cat #M5650-500 mL) • Fetal Bovine Serum, FBS (Sigma, cat #F7524-500 mL) • Solutions of the formulations (see above) • Dilutor: 10 mL MEM+0,036 mL ethanol • Phosphate buffered saline, PBS
# • 1. Fill the edge wells of a 96-well plate with 100 μL media. • 2. Plate 10,000 HeLa cells per well in 96 well plate. […] Total 60 wells should be seeded. Incubate in MEM+10% FBS at 37° C. in a humidified atmosphere with 5% CO2 for 24 h. • 3. Examine under the microscope. Confluency must be at or nearly 80%. • 4. Gently remove the media (aspirate). Place 50 μL of the following formulations: • a) 6 wells with dilutor—negative control • b) 6 wells with Lipofectamine-50—positive control. • c) 6 wells with Lipofectamine-6—secondary positive control • d) 6 wells per formulations—test samples. • 5. Incubate plate for 1 hours at 37° C. • 6. Add 50 μL of MEM+20% FBS (which will become 10% upon dilution). • 7. Place plates into the incubator at 37° C. in a humidified atmosphere with 5% CO2 for 23 h (total 24 hours of incubation). • 8. After 24 h, aspirate the media without disturbing the cells. Gently wash cells with 100 μL of warm PBS. Aspirate PBS. • 9. Add 100 μL of fresh PBS into washed cells and read GFP fluorescence on the plate reader. • 10. This can be followed with viability assessment with the MTT assay. Cell Viability Assessment with MTT Assay (Method B)
# [1] = Apparent pKa in LNPs by TNS titration; assay type: physicochemical; conditions: lipid nanoparticles (LNPs)
# Protocol: In the case of some lipids, the apparent pKa in LNPs was determined by using TNS titration based on the method described: Angew Chem Int Ed Engl. 2012, 51 (34), 8529-8533, doi: 10.1002/anie.201203263).
# [2] = LNP size and size distribution by Dynamic Light Scattering (Method B); assay type: physicochemical; conditions: DLS; for Size (nm): Z-average
# Protocol: • 0.33 ug/uL mRNA solution in DEPC-treated water (RiboPro, Off-The-Shelf mRNA; eGFP with Cap 1) • 0.04 ug/uL mRNA solution in DEPC-treated water (RiboPro, Off-The-Shelf mRNA; eGFP with Cap 1)
# as §1
# • a) Place 45 μL Lipofectamine-50 solution into 1.5 mL sterile Eppendorf tube. • b) Add 315 μL of MEM. Vortex. • c) Incubate 15 min. Size and Size Distribution Measurements with Dynamic Light Scattering • 1. Transfer 100 μL of freshly prepared LNP formulation in DLS micro cuvette. • 2. Place the formulation into Zetasizer pre-heated to 37 C. • 3. Equilibrate the sample for 5 minutes. • 4. Perform the size measurement in triplicate (settings: position and gain auto). • 5. For QC examine correlation curve to have no disturbances. Report Z-average and PDI based on cumulants fit. Transfection Efficiency with GFP mRNA (Method B)
SMILES,Transfection 89 ng mRNA/well (HeLa cells),pKa [1],PDI [2],Size (nm) [2] [nm]
"CCCCCCCCC(CCCCCC)C(=O)OCCCCCCN(CCCCO)CCCCCCOC(=O)C(CCCCCC)CCCCCCCC (stereo not shown) [ALC-0315, reference compound]",15892.1,,,
"CCCCC/C=C\C/C=C\CCCCCCCCOC(CCCCCCC/C=C\C/C=C\CCCCC)O[Si](C)(C)OCCCCCCN(CCO)CCO (stereo not shown) [Example 48, (23Z,26Z)-13-((8Z,11Z)-heptadeca-8,11-dien-1-yl)-3-(2-hydroxyethyl)-11,11-dimethyl-10,12,14-trioxa-3-aza-11-siladotriaconta-23,26-dien-1-ol]",93448.3,7.73,0.128,180
"CCCCC/C=C\C/C=C\CCCCCCCCOC(CCCCCCC/C=C\C/C=C\CCCCC)O[Si](C)(C)OCCCCCCN(C)CCO (stereo not shown) [Example 56, (23Z,26Z)-13-((8Z,11Z)-heptadeca-8,11-dien-1-yl)-3,11,11-trimethyl-10,12,14-trioxa-3-aza-11-siladotriaconta-23,26-dien-1-ol]",78375.2,7.21,0.092,185
"CCCCC/C=C\C/C=C\CCCCCCCCOC(CCCCCCC/C=C\C/C=C\CCCCC)O[Si](C)(C)OCCCCCCN1CCN(CCO)CC1 (stereo not shown) [Example 58, 2-(4-((20Z,23Z)-10-((8Z,11Z)-heptadeca-8,11-dien-1-yl)-8,8-dimethyl-7,9,11-trioxa-8-silanonacosa-20,23-dien-1-yl)piperazin-1-yl)ethan-1-ol]",50019.2,,,
